Data taken from patent US10570131B2, “Heterocyclic compounds and their use in preventing or treating bacterial infections” (MUTABILIS, priority 2015, dated 2020).
Structures can show the parent of a compound that is named as a salt.

What was measured:
AmpC (P99) = molecular target: T1, AmpC (P99) (Enterobacter cloacae, UniProt P05364); assay: biochemical
T1 construct: made in house; host or cells: E. coli expression vector
Description: (§1) Method 1: β-lactamase Inhibitory Activity, Determination of IC50 (Table 1)
(§2) Enzyme activity was monitored by spectrophotometric measurement of nitrocefin (NCF—TOKU-E, N005) hydrolysis at 485 nm, at room temperature and in assay buffer A: 100 mM Phosphate pH7, 2% glycerol and 0.1 mg/mL Bovine serum albumin (Sigma, B4287). Enzymes were cloned in E. coli expression vector, expressed and purified in house using classical procedures. To a transparent polystyrene plate (Corning, 3628) were added in each well 5 μL DMSO or inhibitor dilutions in DMSO and 80 μL enzyme in buffer A. Plates were immediately read at 485 nm in a microplate spectrophotometer (BioTek, PowerWave HT) to enable background subtraction. After 30 min of pre-incubation at room temperature, 15 μL of NCF (200 μM final) were finally added in each well. Final enzyme concentrations were 0.1 nM (TEM-1), 0.075 nM (SHV-1), 0.4 nM (CTX-M-15), 1 nM (KPC-2), 0.2 nM (P99 AmpC), 0.2 nM (CMY-37), 0.4 nM (AmpC P. aeruginosa), 0.2 nM (OXA-1), 1.2 nM (OXA-11), 0.4 nM (OXA-15) and 0.3 nM (OXA-48). After 20 min incubation at room temperature, plates were once again read at 485 nm. Enzyme activity was obtained by subtracting the final signal by the background, and was converted to enzyme inhibition using non inhibited wells. IC50 curves were fitted to a classical Langmuir equilibrium model with Hill slope using XLFIT (IDBS).

OXA-15 = molecular target: T2, OXA-15 (Pseudomonas aeruginosa, UniProt Q51574); assay: biochemical
T2 construct: made in house; host or cells: E. coli expression vector
T2 sequence (Q51574 22-275): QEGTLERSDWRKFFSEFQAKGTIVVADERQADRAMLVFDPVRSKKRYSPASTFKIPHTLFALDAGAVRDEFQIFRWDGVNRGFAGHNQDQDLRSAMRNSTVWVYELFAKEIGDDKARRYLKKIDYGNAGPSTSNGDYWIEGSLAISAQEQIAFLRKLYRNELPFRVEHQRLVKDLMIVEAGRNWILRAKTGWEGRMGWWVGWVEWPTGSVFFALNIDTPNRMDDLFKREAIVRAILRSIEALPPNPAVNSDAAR
Description: as §1, §2

E. coli 190317 [1] = assay: MIC of compounds alone, broth microdilution; format: cell-based; conditions: Escherichia coli; strain 190317 (TEM-1, SHV-12, CTX-M-15, OXA-1); read-out: MIC compounds of the invention alone
In short: (§3)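 Compounds tested alone or with ceftazidime by broth microdilution in cation-adjusted Mueller-Hinton broth, inoculum 5×10^5 cfu/mL from log-phase cultures. Plates incubated 16-20 h at 35° C in ambient air; MIC taken as lowest concentration preventing visible growth.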

E. coli RGN238 = assay: MIC of compounds alone, broth microdilution; format: cell-based; conditions: Escherichia coli, RGN238, read-out: MIC compounds of the invention alone
In short: as §3

P. aeruginosa CIP107051 = assay: MIC of compounds alone, broth microdilution; format: cell-based; conditions: Pseudomonas aeruginosa; strain CIP107051 (TEM-24); read-out: MIC compounds of the invention alone
In short: as §3

E. cloacae 260508 = assay: MIC of ceftazidime alone and in combination with compounds (synergy), broth microdilution; format: cell-based; conditions: MIC of ceftazidime with compound fixed at 4 μg/mL; strain 260508 (TEM-1, CTX-M-15)
E. coli UFR61O = assay: as above; format: cell-based; conditions: MIC of ceftazidime with compound fixed at 4 μg/mL; strain UFR61O (TEM-1, KPC-2)
K. pneumoniae 160143 = assay: as above; format: cell-based; conditions: MIC of ceftazidime with compound fixed at 4 μg/mL; strain 160143 (TEM-1, SHV-1, CTX-M-15, KPC-2, OXA-1)
E. cloacae P99 = assay: as above; format: cell-based; conditions: MIC of ceftazidime with compound fixed at 4 μg/mL; strain P99 (AmpC)
E. cloacae UFR85 = assay: as above; format: cell-based; conditions: MIC of ceftazidime with compound fixed at 4 μg/mL; strain UFR85 (TEM-1, CTX-M-15, derepressed AmpC)
E. cloacae UFR70 = assay: as above; format: cell-based; conditions: MIC of ceftazidime with compound fixed at 4 μg/mL; strain UFR70 (TEM-1, CTX-M-15, CMY-2, OXA-1, Porin loss)
K. oxytoca UFR21 = assay: as above; format: cell-based; conditions: MIC of ceftazidime with compound fixed at 4 μg/mL; strain UFR21 (TEM-1, CTX-M-15, OXA-48)
K. pneumoniae UFR24 = format: cell-based; conditions: MIC of ceftazidime with compound fixed at 4 μg/mL; strain UFR24 (TEM-1, SHV-2, SHV-11, OXA-1, OXA-48, OXA-47)
K. pneumoniae 200047 = assay: MIC of ceftazidime alone and in combination with compounds (synergy), broth microdilution; format: cell-based; conditions: MIC of ceftazidime with compound fixed at 4 μg/mL; strain 200047 (TEM-1, SHV-32, CTX-M-15, OXA-1)
E. coli 190317 [2] = assay: as above; format: cell-based; conditions: MIC of ceftazidime with compound fixed at 4 μg/mL; strain 190317 (TEM-1, SHV-12, CTX-M-15, OXA-1)
E. coli UFR32 = assay: as above; format: cell-based; conditions: MIC of ceftazidime with compound fixed at 4 μg/mL; strain UFR32 (TEM-1, VEB-1, OXA-10)
P. aeruginosa UFR35 = assay: as above; format: cell-based; conditions: MIC of ceftazidime with compound fixed at 4 μg/mL; strain UFR35 (OXA-23)
In short: as §3

P. aeruginosa UFR48 = assay: as above; format: cell-based; conditions: MIC of ceftazidime with compound fixed at 4 μg/mL; strain UFR48 (VIM-2)
In short: as §3

P. aeruginosa UFR90 = assay: as above; format: cell-based; conditions: MIC of ceftazidime with compound fixed at 4 μg/mL; strain UFR90 (derepressed AmpC, OprD−)
In short: as §3

P. aeruginosa UFR59 = assay: as above; format: cell-based; conditions: MIC of ceftazidime with compound fixed at 4 μg/mL; strain UFR59 (IMP-29)

T1 sequence (P05364 21-381): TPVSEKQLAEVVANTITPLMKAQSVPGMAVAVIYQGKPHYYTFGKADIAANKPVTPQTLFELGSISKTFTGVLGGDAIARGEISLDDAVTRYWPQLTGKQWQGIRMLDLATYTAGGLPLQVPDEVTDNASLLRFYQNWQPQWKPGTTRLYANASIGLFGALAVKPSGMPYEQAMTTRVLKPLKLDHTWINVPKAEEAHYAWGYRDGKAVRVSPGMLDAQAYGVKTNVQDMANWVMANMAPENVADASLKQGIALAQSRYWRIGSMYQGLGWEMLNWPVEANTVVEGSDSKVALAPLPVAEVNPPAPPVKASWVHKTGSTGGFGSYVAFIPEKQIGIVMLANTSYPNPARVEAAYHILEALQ

| SMILES | IC50 (AmpC (P99)) | IC50 (OXA-15) | MIC (E. coli 190317 [1]) | MIC (E. coli RGN238) | MIC (P. aeruginosa CIP107051) | MIC, combination of CAZ and compounds of the invention at 4 μg/mL (E. cloacae 260508) | MIC, combination of CAZ and compounds of the invention at 4 μg/mL (E. coli UFR61O) | MIC, combination of CAZ and compounds of the invention at 4 μg/mL (K. pneumoniae 160143) | MIC, combination of CAZ and compounds of the invention at 4 μg/mL (E. cloacae P99) | MIC, combination of CAZ and compounds of the invention at 4 μg/mL (E. cloacae UFR85) | MIC, combination of CAZ and compounds of the invention at 4 μg/mL (E. cloacae UFR70) | MIC, combination of CAZ and compounds of the invention at 4 μg/mL (K. oxytoca UFR21) | MIC, combination of CAZ and compounds of the invention at 4 μg/mL (K. pneumoniae UFR24) | MIC, combination of CAZ and compounds of the invention at 4 μg/mL (K. pneumoniae 200047) | MIC, combination of CAZ and compounds of the invention at 4 μg/mL (E. coli 190317 [2]) | MIC, combination of CAZ and compounds of the invention at 4 μg/mL (E. coli UFR32) | MIC, combination of CAZ and compounds of the invention at 4 μg/mL (P. aeruginosa UFR35) | MIC, combination of CAZ and compounds of the invention at 4 μg/mL (P. aeruginosa UFR48) | MIC, combination of CAZ and compounds of the invention at 4 μg/mL (P. aeruginosa UFR90) | MIC, combination of CAZ and compounds of the invention at 4 μg/mL (P. aeruginosa UFR59) |
| --- | --- | --- | --- | --- | --- | --- | --- | --- | --- | --- | --- | --- | --- | --- | --- | --- | --- | --- | --- | --- |
| CNC(=O)CON=C1C[C@@H](C(N)=O)N2C[C@@H]1N(OS(=O)(=O)[O-])C2=O.[Na+] (mixture of isomers) [Example 2, sodium [(2S,5S)-2-carbamoyl-4-[2-(methylamino)-2-oxo-ethoxy]imino-7-oxo-1,6-diazabicyclo[3.2.1]octan-6-yl] sulfate] | 3.2 nM | 0.84 nM | 4 µg/mL | > 32 µg/mL | > 32 µg/mL | 1 µg/mL | 0.5 µg/mL | 8 µg/mL | 4 µg/mL | 1 µg/mL | 8 µg/mL | 2 µg/mL | 2 µg/mL | 0.5 µg/mL | ≤0.125 µg/mL | 0.5 µg/mL | – | – | – | – |
| NC[C@@H]1CC(=NOCC(N)=O)[C@@H]2CN1C(=O)N2OS(=O)(=O)O (mixture of isomers) [Example 5, sodium and 2,2,2-trifluroacetate [(2S,5S)-4-(2-amino-2-oxo-ethoxy)imino-2-(azaniumylmethyl)-7-oxo-1,6-diazabicyclo[3.2.1]octan-6-yl] sulfate] | 11000 nM | 8 nM | 0.25 µg/mL | > 32 µg/mL | 4 µg/mL | <0.25 µg/mL | <0.25 µg/mL | 0.5 µg/mL | <0.25 µg/mL | ≤0.25 µg/mL | 1 µg/mL | ≤0.25 µg/mL | 1 µg/mL | ≤0.25 µg/mL | <0.25 µg/mL | ≤0.25 µg/mL | <0.25 µg/mL | <0.25 µg/mL | <0.25 µg/mL | <0.25 µg/mL |
| NC[C@@H]1CC(=O)[C@@H]2CN1C(=O)N2OS(=O)(=O)O [Example 6, 2,2,2-trifluroacetate and sodium [(2S,5S)-2-(azaniumylmethyl)-4,7-dioxo-1,6-diazabicyclo[3.2.1]octan-6-yl] sulfate] | 6400 nM | 68 nM | 1 µg/mL | > 32 µg/mL | 8 µg/mL | ≤0.25 µg/mL | 1 µg/mL | 2 µg/mL | <0.25 µg/mL | ≤0.25 µg/mL | 2 µg/mL | ≤0.25 µg/mL | 4 µg/mL | 1 µg/mL | <0.25 µg/mL | <0.25 µg/mL | <0.25 µg/mL | ≤0.25 µg/mL | <0.25 µg/mL | ≤0.25 µg/mL |
